Results as given in ChEMBL document CHEMBL1148502, “Carbonic anhydrase inhibitors: inhibition of the cytosolic human isozyme VII with anions” (Bioorg Med Chem Lett, 2006).
Where “and” joins values, the source holds several entries; their conditions need not be identical. Equal values may be shown once.

Columns and labels:
Carbonic anhydrase 7 = Carbonic anhydrase 7 (Homo sapiens, UniProt P43166)
Description: Inhibition of human recombinant CA7

[1] = Selectivity for human CA7 over murine CA13
Homo sapiens [2] = species: Homo sapiens; assay: Selectivity for human CA7 over human CA2
Homo sapiens [3] = species: Homo sapiens; assay: Selectivity for human CA7 over human CA1

Carbonic anhydrase 7, sequence (P43166 whole entry): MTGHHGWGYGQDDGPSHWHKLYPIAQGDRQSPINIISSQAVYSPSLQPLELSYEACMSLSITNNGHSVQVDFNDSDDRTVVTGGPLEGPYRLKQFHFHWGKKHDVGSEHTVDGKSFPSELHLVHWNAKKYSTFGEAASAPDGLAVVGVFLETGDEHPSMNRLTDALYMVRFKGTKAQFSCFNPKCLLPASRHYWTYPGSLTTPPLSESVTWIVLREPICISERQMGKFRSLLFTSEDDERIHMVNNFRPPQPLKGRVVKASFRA

Structure (SMILES) | Ki (Carbonic anhydrase 7) | further results
O=[N+]([O-])O [NITRIC ACID] | 190 µM | 
O=C(O)O [BICARBONATE] | 270 µM and 160 µM | 
S [HYDROGEN SULFIDE] | 1240 µM | 
F [FLUORIDE ION] | 1240 µM | 
N#CS [THIOCYANIC ACID] | 170 µM | 
OB(O)c1ccccc1 [PHENYLBORONIC ACID] | 8.3 µM | Selectivity ratio [1]: 343; Selectivity ratio (Homo sapiens [2]): 2780; Selectivity ratio (Homo sapiens [3]): 7060
Cl [HYDROCHLORIC ACID] | 1840 µM | 
N#CO [CYANATE] | 15200 µM | 
I [IODIDE] | 250 µM | 
NS(=O)(=O)O [SULFAMATE] | 9.5 µM | 
O=S(=O)(O)O [SULFURIC ACID] | 1380 µM | 
Br [BROMIDE] | 1060 µM | 
O=NO [NITROUS ACID] | 1780 µM | 
O=S(O)O [SULFUROUS ACID] | 7300 µM | 
